Biological target: hENPP2 (Homo sapiens, UniProt Q13822)
Experiment: Human ENPP2 (hENPP2) biochemical assay using LPC as substrate
Conditions: 150 µM LPC (palmitoyl 16:0), 37°C for 30 min
In short: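 IC50 came from compound series (top 50 µM, 1/3 steps) incubated 30 min at 37°C with 1 or 3 µg/mL final enzyme and palmitoyl LPC added at 150 µM, pH 8.5 Tris buffer with Ca2+. Choline output measured as quinoneimine dye at 555 nm via coupled oxidase/HRP/TOOS detection.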

SMILES	IC50
C[C@@H]1C[C@H](N2Cc3cnc(Nc4ccc(S(F)(F)(F)(F)F)cc4)nc3C2)CCN1C(=O)c1ccnc(NS(C)(=O)=O)c1 [compound 177, N-[4-[(2R,4R)-2-methyl-4-[2-[4-(pentafluoro-λ^6-sulfanyl)anilino]-5,7-dihydropyrrolo[3,4-d]pyrimidin-6-yl]piperidine-1-carbonyl]-2-pyridyl]methanesulfonamide]	0.01 to 100 nM
C[C@@H]1C[C@@H](N2Cc3cnc(Nc4ccc(S(F)(F)(F)(F)F)cc4)nc3C2)CCN1C(=O)c1ccnc(NS(C)(=O)=O)c1 [compound 178, N-[4-[(2R,4S)-2-methyl-4-[2-[4-(pentafluoro-λ^6-sulfanyl)anilino]-5,7-dihydropyrrolo[3,4-d]pyrimidin-6-yl]piperidine-1-carbonyl]-2-pyridyl]methanesulfonamide]	0.01 to 100 nM
C[C@@H]1C[C@H](N2Cc3cnc(Nc4ccc(Cl)cc4)nc3C2)CCN1C(=O)c1ccnc(NS(C)(=O)=O)c1 [compound 179, N-[4-[(2R,4R)-4-[2-(4-chloroanilino)-5,7-dihydropyrrolo[3,4-d]pyrimidin-6-yl]-2-methyl-piperidine-1-carbonyl]-2-pyridyl]methanesulfonamide]	0.01 to 100 nM
C[C@@H]1C[C@@H](N2Cc3cnc(Nc4ccc(Cl)cc4)nc3C2)CCN1C(=O)c1ccnc(NS(C)(=O)=O)c1 [compound 180, N-[4-[(2R,4S)-4-[2-(4-chloroanilino)-5,7-dihydropyrrolo[3,4-d]pyrimidin-6-yl]-2-methyl-piperidine-1-carbonyl]-2-pyridyl]methanesulfonamide]	100 to 500 nM
Cc1ccc(Nc2ncc3c(n2)CN([C@@H]2CCN(C(=O)c4ccnc(NS(C)(=O)=O)c4)[C@H](C)C2)C3)cc1 [compound 181, N-[4-[(2R,4R)-2-methyl-4-[2-(4-methylanilino)-5,7-dihydropyrrolo[3,4-d]pyrimidin-6-yl]piperidine-1-carbonyl]-2-pyridyl]methanesulfonamide]	0.01 to 100 nM
Cc1ccc(Nc2ncc3c(n2)CN([C@H]2CCN(C(=O)c4ccnc(NS(C)(=O)=O)c4)[C@H](C)C2)C3)cc1 [compound 182, N-[4-[(2R,4S)-2-methyl-4-[2-(4-methylanilino)-5,7-dihydropyrrolo[3,4-d]pyrimidin-6-yl]piperidine-1-carbonyl]-2-pyridyl]methanesulfonamide]	500 to 1000 nM
Cc1cc2[nH]nnc2cc1C(=O)N1CC[C@@H](N2Cc3cnc(Nc4ccc(C(F)(F)F)cc4)nc3C2)C[C@H]1C [compound 183, (6-methyl-1H-benzotriazol-5-yl)-[(2R,4R)-2-methyl-4-[2-[4-(trifluoromethyl)anilino]-5,7-dihydropyrrolo[3,4-d]pyrimidin-6-yl]-1-piperidyl]methanone]	0.01 to 100 nM
COc1cc(C)cc(Nc2ncc3c(n2)CN([C@@H]2CCN(C(=O)c4cc5nn[nH]c5cc4C)[C@H](C)C2)C3)c1 [compound 184, [(2R,4R)-4-[2-(3-methoxy-5-methyl-anilino)-5,7-dihydropyrrolo[3,4-d]pyrimidin-6-yl]-2-methyl-1-piperidyl]-(6-methyl-1H-benzotriazol-5-yl)methanone]	0.01 to 100 nM
COc1cc(C)cc(Nc2ncc3c(n2)CN([C@H]2CCN(C(=O)c4cc5nn[nH]c5cc4C)[C@H](C)C2)C3)c1 [compound 185, [(2R,4S)-4-[2-(3-methoxy-5-methyl-anilino)-5,7-dihydropyrrolo[3,4-d]pyrimidin-6-yl]-2-methyl-1-piperidyl]-(6-methyl-1H-benzotriazol-5-yl)methanone]	0.01 to 100 nM
C[C@@H]1C[C@H](N2Cc3cnc(Nc4ccc(C(F)(F)F)cc4)nc3C2)CCN1C(=O)c1ccnc(NS(C)(=O)=O)c1 [compound 186, N-[4-[(2R,4R)-2-methyl-4-[2-[4-(trifluoromethyl)anilino]-5,7-dihydropyrrolo[3,4-d]pyrimidin-6-yl]piperidine-1-carbonyl]-2-pyridyl]methanesulfonamide]	0.01 to 100 nM
COc1cc(C)cc(Nc2ncc3c(n2)CN([C@@H]2CCN(C(=O)c4ccnc(NS(C)(=O)=O)c4)[C@H](C)C2)C3)c1 [compound 187, N-[4-[(2R,4R)-4-[2-(3-methoxy-5-methyl-anilino)-5,7-dihydropyrrolo[3,4-d]pyrimidin-6-yl]-2-methyl-piperidine-1-carbonyl]-2-pyridyl]methanesulfonamide]	0.01 to 100 nM
C[C@@H]1C[C@H](N2Cc3cnc(Nc4ccc(F)cc4)nc3C2)CCN1C(=O)c1ccnc(NS(C)(=O)=O)c1 [compound 188, N-[4-[(2R,4R)-4-[2-(4-fluoroanilino)-5,7-dihydropyrrolo[3,4-d]pyrimidin-6-yl]-2-methyl-piperidine-1-carbonyl]-2-pyridyl]methanesulfonamide]	0.01 to 100 nM
COc1cccc(Nc2ncc3c(n2)CN([C@@H]2CCN(C(=O)c4ccnc(NS(C)(=O)=O)c4)[C@H](C)C2)C3)c1 [compound 189, N-[4-[(2R,4R)-4-[2-(3-methoxyanilino)-5,7-dihydropyrrolo[3,4-d]pyrimidin-6-yl]-2-methyl-piperidine-1-carbonyl]-2-pyridyl]methanesulfonamide]	0.01 to 100 nM
C[C@@H]1C[C@@H](N2Cc3cnc(Nc4ccc(C(F)(F)F)cc4)nc3C2)CCN1C(=O)c1ccnc(NS(C)(=O)=O)c1 [compound 190, N-[4-[(2R,4S)-2-methyl-4-[2-[4-(trifluoromethyl)anilino]-5,7-dihydropyrrolo[3,4-d]pyrimidin-6-yl]piperidine-1-carbonyl]-2-pyridyl]methanesulfonamide]	0.01 to 100 nM
COc1cc(C)cc(Nc2ncc3c(n2)CN([C@H]2CCN(C(=O)c4ccnc(NS(C)(=O)=O)c4)[C@H](C)C2)C3)c1 [compound 191, N-[4-[(2R,4S)-4-[2-(3-methoxy-5-methyl-anilino)-5,7-dihydropyrrolo[3,4-d]pyrimidin-6-yl]-2-methyl-piperidine-1-carbonyl]-2-pyridyl]methanesulfonamide]	100 to 500 nM
C[C@@H]1C[C@@H](N2Cc3cnc(Nc4ccc(F)cc4)nc3C2)CCN1C(=O)c1ccnc(NS(C)(=O)=O)c1 [compound 192, N-[4-[(2R,4S)-4-[2-(4-fluoroanilino)-5,7-dihydropyrrolo[3,4-d]pyrimidin-6-yl]-2-methyl-piperidine-1-carbonyl]-2-pyridyl]methanesulfonamide]	> 1000 nM
COc1cccc(Nc2ncc3c(n2)CN([C@H]2CCN(C(=O)c4ccnc(NS(C)(=O)=O)c4)[C@H](C)C2)C3)c1 [compound 193, N-[4-[(2R,4S)-4-[2-(3-methoxyanilino)-5,7-dihydropyrrolo[3,4-d]pyrimidin-6-yl]-2-methyl-piperidine-1-carbonyl]-2-pyridyl]methanesulfonamide]	> 1000 nM
Cc1cc(C)cc(Nc2ncc3c(n2)CN(C2(C)CCN(C(=O)c4cc5nn[nH]c5cc4F)CC2)C3)c1 [compound 194, [4-[2-(3,5-dimethylanilino)-5,7-dihydropyrrolo[3,4-d]pyrimidin-6-yl]-4-methyl-1-piperidyl]-(6-fluoro-1H-benzotriazol-5-yl)methanone]	> 1000 nM
C[C@@H]1C[C@H](N2Cc3cnc(Nc4ccc(S(F)(F)(F)(F)F)cc4)nc3C2)CCN1C(=O)c1cc2nn[nH]c2cc1F [compound 195, (6-fluoro-1H-benzotriazol-5-yl)-[(2R,4R)-2-methyl-4-[2-[4-(pentafluoro-λ^6-sulfanyl)anilino]-5,7-dihydropyrrolo[3,4-d]pyrimidin-6-yl]-1-piperidyl]methanone]	0.01 to 100 nM
C[C@@H]1C[C@@H](N2Cc3cnc(Nc4ccc(S(F)(F)(F)(F)F)cc4)nc3C2)CCN1C(=O)c1cc2nn[nH]c2cc1F [compound 196, (6-fluoro-1H-benzotriazol-5-yl)-[(2R,4S)-2-methyl-4-[2-[4-(pentafluoro-λ^6-sulfanyl)anilino] -5,7-dihydropyrrolo[3,4-d]pyrimidin-6-yl]-1-piperidyl]methanone]	0.01 to 100 nM
COc1cc(F)cc(Nc2ncc3c(n2)CN([C@@H]2CCN(C(=O)c4cc5nn[nH]c5cc4F)[C@H](C)C2)C3)c1 [compound 197, (6-fluoro-1H-benzotriazol-5-yl)-[(2R,4R)-4-[2-(3-fluoro-5-methoxy-anilino)-5,7-dihydropyrrolo[3,4-d]pyrimidin-6-yl]-2-methyl-1-piperidyl] methanone]	0.01 to 100 nM
Cc1cc(C)cc(Nc2ncc3c(n2)CN([C@@H]2CCN(C(=O)c4ccnc(N)c4)[C@H](C)C2)C3)c1 [compound 198, (2-amino-4-pyridyl)-[(2R,4R)-4-[2-(3,5-dimethylanilino)-5,7-dihydropyrrolo[3,4-d]pyrimidin-6-yl]-2-methyl-1-piperidyl]methanone]	> 1000 nM
Cc1cc(C)cc(Nc2ncc3c(n2)CCN(C2CCN(C(=O)C4CCN(c5cc6nn[nH]c6cc5C)CC4)CC2)C3)c1 [compound 199, [4-[2-(3,5-dimethylanilino)-7,8-dihydro-5H-pyrido[4,3-d]pyrimidin-6-yl]-1-piperidyl]-[1-(6-methyl-1H-benzotriazol-5-yl)-4-piperidyl]methanone]	> 1000 nM
COc1cc(Nc2ncc3c(n2)CN([C@@H]2CCN(C(=O)c4ccnc(NS(C)(=O)=O)c4)[C@H](C)C2)C3)cc(OC)c1 [compound 200, N-[4-[(2R,4R)-4-[2-(3,5-dimethoxyanilino)-5,7-dihydropyrrolo[3,4-d]pyrimidin-6-yl]-2-methyl-piperidine-1-carbonyl]-2-pyridyl]methanesulfonamide]	0.01 to 100 nM
CS(=O)(=O)Nc1cc(C(=O)N2CCC(N3Cc4cnc(Nc5ccc(C(F)(F)F)cc5)nc4C3)CC2)ccn1 [compound 201, N-[4-[4-[2-[4-(trifluoromethyl)anilino]-5,7-dihydropyrrolo[3,4-d]pyrimidin-6-yl]piperidine-1-carbonyl]-2-pyridyl]methanesulfonamide]	0.01 to 100 nM
Cc1cc(C)cc(Nc2ncc3c(n2)CN(C2CCN(C(=O)c4ccnc(NS(C)(=O)=O)c4)CC2)C3)c1 [compound 202, N-[4-[4-[2-(3,5-dimethylanilino)-5,7-dihydropyrrolo[3,4-d]pyrimidin-6-yl]piperidine-1-carbonyl]-2-pyridyl]methanesulfonamide]	0.01 to 100 nM

Source: patent EP3782997A1, “FUSED PYRIMIDINE COMPOUNDS AND PHARMACEUTICAL COMPOSITIONS THEREOF FOR THE TREATMENT OF FIBROTIC DISEASES” (Galapagos N.V., priority 2019, dated 2021)
